US6358885B1, “Substituted phenylheterocyclic herbicides” (Mississippi State University, priority 1992, dated 2002)

Tests used:
Assay in all cases: Test B preemergence/postemergence greenhouse plant response rating 0 to 10
velvetleaf = assay type: in vivo, Abutilon theophrasti; conditions: for Plant response rating, Velvetleaf: 0 to 10 scale
Summary of the method: (§1)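 Test chemicals, dissolved in a non-phytotoxic solvent, were applied to soil at planting and, at the same time, over foliage of seedlings at the one to four leaf stage.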

wheat = assay type: in vivo, Triticum aestivum; conditions: for Plant response rating, Wheat: 0 to 10 scale
Summary of the method: as §1

wild oat = assay type: in vivo, Avena fatua; conditions: for Plant response rating, Wild oat: 0 to 10 scale
Summary of the method: as §1

wild buckwheat = assay type: in vivo, Polygonum convolvulus; conditions: for Plant response rating, Wild buckwheat: 0 to 10 scale
Summary of the method: as §1

sugar beet = assay type: in vivo, Beta vulgaris; conditions: for Plant response rating, Sugar beet: 0 to 10 scale
Summary of the method: as §1

chickweed = assay type: in vivo, Stellaria media; conditions: for Plant response rating, Chickweed: 0 to 10 scale
Summary of the method: as §1

rice = assay type: in vivo, Oryza sativa; conditions: for Plant response rating, Rice: 0 to 10 scale
Summary of the method: as §1

lambsquarters = assay type: in vivo, Chenopodium album; conditions: for Plant response rating, Lambsquarter: 0 to 10 scale
Summary of the method: as §1

soybean = assay type: in vivo, Glycine max; conditions: for Plant response rating, Soybean: 0 to 10 scale
Summary of the method: as §1

barley = assay type: in vivo, Hordeum vulgare; conditions: for Plant response rating, Barley: 0 to 10 scale
Summary of the method: as §1

barnyardgrass = assay type: in vivo, Echinochloa crus-galli; conditions: for Plant response rating, Barnyardgrass: 0 to 10 scale
Summary of the method: as §1

corn = assay type: in vivo, Zea mays; conditions: for Plant response rating, Corn: 0 to 10 scale
Summary of the method: as §1

rape = assay type: in vivo, Brassica napus; conditions: for Plant response rating, Rape: 0 to 10 scale
Summary of the method: as §1

purple nutsedge = assay type: in vivo, Cyperus rotundus; conditions: for Plant response rating, Nutsedge: 0 to 10 scale
Summary of the method: as §1

giant foxtail = assay type: in vivo, Setaria faberii; conditions: for Plant response rating, Giant foxtail: 0 to 10 scale
Summary of the method: as §1

cheatgrass = assay type: in vivo, Bromus secalinus; conditions: for Plant response rating, Cheatgrass: 0 to 10 scale
Summary of the method: as §1

crabgrass = assay type: in vivo, Digitaria spp.; conditions: for Plant response rating, Crabgrass: 0 to 10 scale
Summary of the method: as §1

morningglory = assay type: in vivo, Ipomoea hederacea; conditions: for Plant response rating, Morningglory: 0 to 10 scale
Summary of the method: as §1

cocklebur = assay type: in vivo, Xanthium pensylvanicum; conditions: for Plant response rating, Cocklebur: 0 to 10 scale
Summary of the method: as §1

cotton = assay type: in vivo, Gossypium hirsutum; conditions: for Plant response rating, Cotton: 0 to 10 scale
Summary of the method: as §1

blackgrass = assay type: in vivo, Alopecurus myosuroides; conditions: for Plant response rating, Blackgrass: 0 to 10 scale
Summary of the method: as §1

sorghum = assay type: in vivo, Sorghum bicolor; conditions: for Plant response rating, Sorghum: 0 to 10 scale
Summary of the method: as §1

bedstraw = assay type: in vivo, Galium aparine; conditions: for Plant response rating, Bedstraw: 0 to 10 scale
Summary of the method: as §1

C=CCOc1cc(-c2nn3c(c2Cl)CCCC3)c(Cl)cc1Cl [Compound 71]
3: Plant response rating, Wild oat (wild oat; POSTEMERGENCE, Rate 50 g/ha) | Plant response rating, Chickweed (chickweed; Rate 200 g/ha, POSTEMERGENCE) | Plant response rating, Barley (barley; POSTEMERGENCE, Rate 50 g/ha) | Plant response rating, Corn (corn; POSTEMERGENCE, Rate 50 g/ha) | Plant response rating, Corn (corn; Rate 200 g/ha, POSTEMERGENCE) | Plant response rating (0 to 10 scale), Rape (rape; PREEMERGENCE, Rate 200 g/ha) | Plant response rating, Crabgrass (crabgrass; POSTEMERGENCE, Rate 50 g/ha) | Plant response rating, Crabgrass (crabgrass; Rate 200 g/ha, POSTEMERGENCE)
7: Plant response rating, Soybean (soybean; Rate 200 g/ha, POSTEMERGENCE) | Plant response rating, Cocklebur (cocklebur; POSTEMERGENCE, Rate 50 g/ha)
4: Plant response rating, Wheat (wheat; POSTEMERGENCE, Rate 50 g/ha) | Plant response rating, Rice (rice; POSTEMERGENCE, Rate 50 g/ha) | Plant response rating, Barley (barley; Rate 200 g/ha, POSTEMERGENCE) | Plant response rating, Cheatgrass (cheatgrass; POSTEMERGENCE, Rate 50 g/ha) | Plant response rating, Blackgrass (blackgrass; POSTEMERGENCE, Rate 50 g/ha)
5: Plant response rating, Wild oat (wild oat; Rate 200 g/ha, POSTEMERGENCE) | Plant response rating, Sugar beet (sugar beet; PREEMERGENCE, Rate 50 g/ha) | Plant response rating, Rice (rice; Rate 200 g/ha, POSTEMERGENCE) | Plant response rating (0 to 10 scale), Barnyardgrass (barnyardgrass; PREEMERGENCE, Rate 200 g/ha) | Plant response rating (0 to 10 scale), Nutsedge (purple nutsedge; PREEMERGENCE, Rate 200 g/ha) | Plant response rating, Giant foxtail (giant foxtail; POSTEMERGENCE, Rate 50 g/ha) | Plant response rating (0 to 10 scale), Crabgrass (crabgrass; PREEMERGENCE, Rate 200 g/ha)
8: Plant response rating, Barnyardgrass (barnyardgrass; Rate 200 g/ha, POSTEMERGENCE) | Plant response rating, Rape (rape; POSTEMERGENCE, Rate 50 g/ha) | Plant response rating (0 to 10 scale), Giant foxtail (giant foxtail; PREEMERGENCE, Rate 200 g/ha) | Plant response rating, Cocklebur (cocklebur; Rate 200 g/ha, POSTEMERGENCE) | Plant response rating, Bedstraw (bedstraw; POSTEMERGENCE, Rate 50 g/ha)
6: Plant response rating, Wheat (wheat; Rate 200 g/ha, POSTEMERGENCE) | Plant response rating, Soybean (soybean; POSTEMERGENCE, Rate 50 g/ha) | Plant response rating, Barnyardgrass (barnyardgrass; POSTEMERGENCE, Rate 50 g/ha) | Plant response rating, Giant foxtail (giant foxtail; Rate 200 g/ha, POSTEMERGENCE) | Plant response rating, Cheatgrass (cheatgrass; Rate 200 g/ha, POSTEMERGENCE) | Plant response rating, Blackgrass (blackgrass; Rate 200 g/ha, POSTEMERGENCE) | Plant response rating, Sorghum (sorghum; POSTEMERGENCE, Rate 50 g/ha) | Plant response rating, Sorghum (sorghum; Rate 200 g/ha, POSTEMERGENCE) | Plant response rating (0 to 10 scale), Bedstraw (bedstraw; PREEMERGENCE, Rate 200 g/ha)
0: Plant response rating, Velvetleaf (velvetleaf; PREEMERGENCE, Rate 50 g/ha) | Plant response rating, Wheat (wheat; PREEMERGENCE, Rate 50 g/ha) | Plant response rating, Wild buckwheat (wild buckwheat; PREEMERGENCE, Rate 50 g/ha) | Plant response rating, Chickweed (chickweed; PREEMERGENCE, Rate 50 g/ha) | Plant response rating (0 to 10 scale), Chickweed (chickweed; PREEMERGENCE, Rate 200 g/ha) | Plant response rating, Rice (rice; PREEMERGENCE, Rate 50 g/ha) | Plant response rating (0 to 10 scale), Rice (rice; PREEMERGENCE, Rate 200 g/ha) | Plant response rating, Soybean (soybean; PREEMERGENCE, Rate 50 g/ha) | Plant response rating (0 to 10 scale), Soybean (soybean; PREEMERGENCE, Rate 200 g/ha) | Plant response rating, Barley (barley; PREEMERGENCE, Rate 50 g/ha) | Plant response rating (0 to 10 scale), Barley (barley; PREEMERGENCE, Rate 200 g/ha) | Plant response rating, Barnyardgrass (barnyardgrass; PREEMERGENCE, Rate 50 g/ha) | Plant response rating, Corn (corn; PREEMERGENCE, Rate 50 g/ha) | Plant response rating, Rape (rape; PREEMERGENCE, Rate 50 g/ha) | Plant response rating, Nutsedge (purple nutsedge; PREEMERGENCE, Rate 50 g/ha) | Plant response rating, Giant foxtail (giant foxtail; PREEMERGENCE, Rate 50 g/ha) | Plant response rating, Cheatgrass (cheatgrass; PREEMERGENCE, Rate 50 g/ha) | Plant response rating, Crabgrass (crabgrass; PREEMERGENCE, Rate 50 g/ha) | Plant response rating, Morningglory (morningglory; PREEMERGENCE, Rate 50 g/ha) | Plant response rating (0 to 10 scale), Morningglory (morningglory; PREEMERGENCE, Rate 200 g/ha) | Plant response rating, Cocklebur (cocklebur; PREEMERGENCE, Rate 50 g/ha) | Plant response rating (0 to 10 scale), Cocklebur (cocklebur; PREEMERGENCE, Rate 200 g/ha) | Plant response rating, Cotton (cotton; PREEMERGENCE, Rate 50 g/ha) | Plant response rating (0 to 10 scale), Cotton (cotton; PREEMERGENCE, Rate 200 g/ha) | Plant response rating, Blackgrass (blackgrass; PREEMERGENCE, Rate 50 g/ha) | Plant response rating (0 to 10 scale), Blackgrass (blackgrass; PREEMERGENCE, Rate 200 g/ha) | Plant response rating, Sorghum (sorghum; PREEMERGENCE, Rate 50 g/ha) | Plant response rating (0 to 10 scale), Sorghum (sorghum; PREEMERGENCE, Rate 200 g/ha)
10: Plant response rating, Velvetleaf (velvetleaf; POSTEMERGENCE, Rate 50 g/ha) | Plant response rating (0 to 10 scale), Velvetleaf (velvetleaf; PREEMERGENCE, Rate 200 g/ha) | Plant response rating, Velvetleaf (velvetleaf; Rate 200 g/ha, POSTEMERGENCE) | Plant response rating, Wild buckwheat (wild buckwheat; POSTEMERGENCE, Rate 50 g/ha) | Plant response rating (0 to 10 scale), Wild buckwheat (wild buckwheat; PREEMERGENCE, Rate 200 g/ha) | Plant response rating, Wild buckwheat (wild buckwheat; Rate 200 g/ha, POSTEMERGENCE) | Plant response rating, Sugar beet (sugar beet; POSTEMERGENCE, Rate 50 g/ha) | Plant response rating (0 to 10 scale), Sugar beet (sugar beet; PREEMERGENCE, Rate 200 g/ha) | Plant response rating, Sugar beet (sugar beet; Rate 200 g/ha, POSTEMERGENCE) | Plant response rating, Lambsquarter (lambsquarters; POSTEMERGENCE, Rate 50 g/ha) | Plant response rating, Lambsquarter (lambsquarters; PREEMERGENCE, Rate 50 g/ha) | Plant response rating (0 to 10 scale), Lambsquarter (lambsquarters; PREEMERGENCE, Rate 200 g/ha) | Plant response rating, Lambsquarter (lambsquarters; Rate 200 g/ha, POSTEMERGENCE) | Plant response rating, Rape (rape; Rate 200 g/ha, POSTEMERGENCE) | Plant response rating, Morningglory (morningglory; POSTEMERGENCE, Rate 50 g/ha) | Plant response rating, Morningglory (morningglory; Rate 200 g/ha, POSTEMERGENCE) | Plant response rating, Cotton (cotton; POSTEMERGENCE, Rate 50 g/ha) | Plant response rating, Cotton (cotton; Rate 200 g/ha, POSTEMERGENCE)
9: Plant response rating, Bedstraw (bedstraw; Rate 200 g/ha, POSTEMERGENCE)
2: Plant response rating (0 to 10 scale), Wheat (wheat; PREEMERGENCE, Rate 200 g/ha) | Plant response rating, Wild oat (wild oat; PREEMERGENCE, Rate 50 g/ha) | Plant response rating (0 to 10 scale), Wild oat (wild oat; PREEMERGENCE, Rate 200 g/ha) | Plant response rating, Chickweed (chickweed; POSTEMERGENCE, Rate 50 g/ha) | Plant response rating (0 to 10 scale), Corn (corn; PREEMERGENCE, Rate 200 g/ha) | Plant response rating, Nutsedge (purple nutsedge; POSTEMERGENCE, Rate 50 g/ha) | Plant response rating, Nutsedge (purple nutsedge; Rate 200 g/ha, POSTEMERGENCE) | Plant response rating (0 to 10 scale), Cheatgrass (cheatgrass; PREEMERGENCE, Rate 200 g/ha) | Plant response rating, Bedstraw (bedstraw; PREEMERGENCE, Rate 50 g/ha)
